Laboratory results published in patent US8278359B2, “Compositions containing amines and use thereof to treat acne or reduce the appearance of oil or pores on the skin” (Johnson & Johnson Consumer Companies, Inc., priority 2005, dated 2012).
Marks after values point to notes of the source that are not given here.

How the values were obtained:
[1] = tested on: facial skin pores; test: Clinical study: reduction of pore size on facial skin, parallel-polarized image analysis; assay type: in vivo, human; conditions: composition containing 2.5% THPED, 45 minutes
Text: A composition containing 2.5% THPED was compared to a corresponding placebo composition for the reduction of pore size on facial skin. 31 subjects were enrolled in the study, with all of the subjects completing the protocol. Table XVII discloses the formulation of the two compositions.
About 0.45-0.52 g of each composition was applied on one side of the face for each subject and allowed to dry. Each composition was applied only once to the area for the duration of this study. At baseline and 45 minutes after composition application, parallel-polarized digital images were taken of the entire face to document changes observed in pore size. Pore Size Reduction was evaluated using computer analysis of Parallel-Polarized images of the face.

[2] = tested on: TNF (tissue necrosis factor-alpha); test: PHA-stimulated peripheral blood lymphocyte cytokine release: TNF; assay type: cell-based; conditions: Homo sapiens, 48 h, read-out: TNF % inh.
Text: (§1) The ability of various amines to affect the inflammatory responses was illustrated by its ability to reduce the production of cytokines by human lymphocytes stimulated with the T-cell receptor (TCR) activating agent phytohaemagglutinin (PHA) in the following assay.
(§2) Human leukocytes were collected from a healthy adult […] via leukopheresis, and adjusted to a density Of 1×10^6 cells/mL in serum free lymphocyte growth medium (ExVivo-15, Biowhittaker, Walkersville, Md.). PBLs were stimulated with 10 μg/mL PHA in the presence or absence of test samples following published methods (Hamamoto Y., et al. Exp Dermatol 2:231-235, 1993). The following compounds were evaluated N,N,N′,N′-Tetrakis(2-hydroxypropyl)ethylenediamine (THPED, available from BASF under the tradename “Quadrol” or “Neutrol”), N,N,N,N-Tetramethylethylenediamine (TEMED, available from Pfaltz & Bauer Chemicals (Waterbury, Conn.)), and Diethylenetriamine (available from Sigma-Aldrich) Following a 48 hour incubation at 37° C. with 5% CO2, the supernatant was removed and evaluated for cytokine content using commercially available multiplex cytokine detection kit.

[3] = tested on: GM-CSF (granulocyte macrophage stimulating factor); test: PHA-stimulated peripheral blood lymphocyte cytokine release: GM-CSF; assay type: cell-based; conditions: Homo sapiens, 48 h, read-out: GMCSF % inh.
Text: as §1, §2

[4] = tested on: tyrosinase; test: Tyrosinase protein levels in B16 cells (Western blot, normalized to β-Actin); assay type: cell-based, murine; conditions: pH 7.2, 48 hours, PBS treated control = 1
Description: THPED was also tested for its ability to induce tyrosinase protein levels in B16 cells. B16 cells were treated with THPED at different concentrations at pH 7.2 for 48 hours and cells were then lysed in 250 μl of PBS containing 1% Triton X-100. B16 cell lysates containing 3.7 μg of protein (for tyrosinase protein analysis) and 1.2 μg of protein (for β-Actin protein analysis) were electrophoresed on 4-20% Tris-Glycine SDS PAGE minigels (Invitrogen, Carlsbad, Calif.), transferred onto PVDF membrane (Bio Rad, Hercules, Calif.), and probed with antibodies for Tyrosinase (1:200 in PBS+0.2% Tween 20+5% BSA, obtained from Santa Cruz Biotechnology, Inc., Santa Cruz, Calif.) and β-Actin (1:2000 in PBS+0.2% Tween 20+5% BSA, obtained from Sigma, St. Louis, Mo.). Protein expression of tyrosinase and β-Actin were analyzed using ECL reagent and Hyperfilm ECL obtained from Amersham (Piscataway, N.J.). The film was developed using a Konica SRX-101A Processor (East Orange, N.J.).
Tyrosinase protein level in untreated B16 cells was normalized to 1.

[5] = tested on: IL-2 (Interleukin-2); test: PHA-stimulated peripheral blood lymphocyte cytokine release: IL-2; assay type: cell-based; conditions: Homo sapiens, 48 h, read-out: IL-2 % inh.
Text: as §1, §2

[6] = tested on: human facial skin biopsy punches rich in sebaceous glands; test: Sebum lipid accumulation in facial skin biopsy punches (C14-acetate, HPTLC); assay type: cell-based; conditions: 25 um; two experiments, two donors
Text: The ability of THPED to selectively affect the content of squalene present in human sebum without affecting other components of sebum was illustrated by its ability to selectively reduce the content of squalene present in human skin using the following assay.
The Methods used are as described previously by Pappas et al. (J Invest Dermatol. 2002 January; 118(1):164-171). In summary, samples of facial skin (otherwise to be discarded) were obtained from female patients 45-65 years of age. The subjects were healthy females without a history of retinoid or laser treatment or chemotherapy. The specimens were obtained from facial lift surgery within 5 hours from the end of the surgery. Two mm biopsy punches were taken from tissues rich in sebaceous glands and cultured in serum free medium. […]
The lipid components extracted from the explanted glands were analyzed by chromatographic separation on 10×20 cm Whatman HPTLC Silica G plates that had been previously charged with chloroform, heated in a vacuum oven at 105° C. for 30 min and cooled to room temperature in a dessicator. […]

CC(O)CN(CCN(CC(C)O)CC(C)O)CC(C)O (stereo not shown) [THPED, N,N,N′,N′-Tetrakis(2-hydroxypropyl)ethylenediamine]
% Of Pore Size Reduction over Placebo ([1]; single application, subject responders): 7.11%*
greater pore reduction response than the placebo alone [1]: 19.4%
inhibition at 10 µg/mL [2]: 13.3%
inhibition at 100 µg/mL [2]: 46.1%
inhibition at 10 µg/mL [3]: 10.3%
inhibition at 100 µg/mL [3]: 15.8%
Relative increase in tyrosinase protein ([4]; 0.01%): 3 fold
Relative increase in tyrosinase protein ([4]; 0.025%): 25 fold
Relative increase in tyrosinase protein ([4]; 0.05%): 36 fold
inhibition at 10 µg/mL [5]: 10.6%
inhibition at 100 µg/mL [5]: 41.3%
Inhibition of Squalene accumulation, (Percent of Vehicle Treated) [6]: 44.0%
Inhibition of Triglyceride accumulation, (Percent of Vehicle Treated) [6]: 2.65%
